Results reported in PMC6148246, “HS-1371, a novel kinase inhibitor of RIP3-mediated necroptosis” (Experimental & Molecular Medicine, 2018).

Key:
p-MLKL = experiment: Phospho-MLKL immunofluorescence in HT-29 cells; type: cell-based, human; conditions: HT-29, immunofluorescence
Protocol: HT-29 cells were fixed in 4% paraformaldehyde for 10 min. To stain phospho-MLKL, cells were permeabilized with 0.25% Triton X-100 for 10 min. After incubation in a blocking buffer (10% fetal bovine serum in DPBS) for 30 min, the primary antibody to phospho-MLKL was incubated overnight at 4 °C, and FITC-conjugated secondary antibody (goat anti-rabbit IgG, 1:250, dilution, Invitrogen) was incubated for 1 h at room temperature. A mounting medium containing DAPI (VECTASHIELD, Cat No. 94010, Vector Laboratories) was used for counterstaining. Representative images were taken by confocal microscope.
(§1) HT-29 cells were pretreated with four tested inhibitors for 2 h and then treated with TSZ (6 h for immunoblotting, 24 h for cell death assay). Cell lysates were analyzed by immunoblotting, and cell viability was analyzed by MTT assay or phase-contrast microscopy. The results are presented as the means ± SEM. *P < 0.05, **P < 0.01, ***P < 0.001. b Protection of necroptosis by HS-1371 treatment is similar with dabrafenib, which abolished downstream events. HT-29 cells were pretreated with various necroptosis inhibitors and HS-1371 before TSZ treatment. Cell lysates were analyzed by immunoblotting, and cell viability was analyzed by MTT assay (left panel). Cells were stained with phospho-MLKL antibody and analyzed by confocal fluorescence microscopy (middle panel), and cell death was further analyzed by FACS analysis after PI staining (right panel). c HS-1371 protects cells from TNF-induced necroptosis in a dose-dependent manner. HT-29 cells were pretreated with indicated concentrations of HS-1371 and then treated with TSZ (6 h for immunoblotting, 24 h for cell death assay). Cell lysates were analyzed by immunoblotting, and cell viability was analyzed by MTT assay or phase-contrast microscopy. The results are presented as means ± SEM. *P < 0.05, **P < 0.01, ***P < 0.001 TEXT PRINTED IN THE PICTURE: (b) TSZ: 20.7 | (b) TSZ + Nec-1: 5.8 | (b) TSZ + DAB: 5.5 | (b) TSZ + 1371: 6.8 DOUBTS OF THE COPYIST ABOUT THIS PICTURE: Panel b, flow cytometry plots: the red gate numbers are printed without a measure or unit, so none is given / Panel b: the 'Untreated' control plot prints 7.7; left out because it is not a substance

H2009 cells = H2009 cells ectopically expressing RIP3, TSZ-induced necroptosis; type: cell-based, human; conditions: H2009 with ectopic RIP3
Protocol: HEK293T, HT-29, H2009, L929, HeLa, and MEF cells were grown in Dulbecco’s Modified Eagle’s Medium (DMEM) supplemented with 10% fetal bovine serum (FBS). RAW264.7 cells were grown in Roswell Park Memorial Institute (RPMI) 1640 media supplemented with 10% FBS. To generate cell lines stably expressing the RIP3 construct, HeLa and H2009 cells were infected with pLX303-hRIP3 lentivirus.
Cells were pretreated with DAB or HS-1371 for 2 h and then treated with TSZ (6 h for immunoblotting, 24 h for cell death assay). Cell lysates were analyzed by immunoblotting (left bottom panel), and cell viability was analyzed by MTT assay (right panel). The results are presented as means ± SEM. *P < 0.05, **P < 0.01, ***P < 0.001. c, d HS-1371 had the same effect on mouse cells. L929 (mouse sarcoma, c) and MEF (mouse embryonic fibroblast, d) cells were pretreated with inhibitors and then necroptosis was induced by TNF. Cell lysates were analyzed by immunoblotting (upper panel), and cell viability was analyzed by MTT assay (bottom panel). The results are presented as means ± SEM. *P < 0.05, **P < 0.01, ***P < 0.001

RIP3 = RIP3 (Homo sapiens, UniProt Q9Y572); experiment: Mechanism of action / ATP competition study with RIP3 enzyme; type: biochemical; conditions: 20 min pre-incubation; Michaelis-Menten and Lineweaver-Burk plots
Sequence of RIP3 (Q9Y572 whole entry): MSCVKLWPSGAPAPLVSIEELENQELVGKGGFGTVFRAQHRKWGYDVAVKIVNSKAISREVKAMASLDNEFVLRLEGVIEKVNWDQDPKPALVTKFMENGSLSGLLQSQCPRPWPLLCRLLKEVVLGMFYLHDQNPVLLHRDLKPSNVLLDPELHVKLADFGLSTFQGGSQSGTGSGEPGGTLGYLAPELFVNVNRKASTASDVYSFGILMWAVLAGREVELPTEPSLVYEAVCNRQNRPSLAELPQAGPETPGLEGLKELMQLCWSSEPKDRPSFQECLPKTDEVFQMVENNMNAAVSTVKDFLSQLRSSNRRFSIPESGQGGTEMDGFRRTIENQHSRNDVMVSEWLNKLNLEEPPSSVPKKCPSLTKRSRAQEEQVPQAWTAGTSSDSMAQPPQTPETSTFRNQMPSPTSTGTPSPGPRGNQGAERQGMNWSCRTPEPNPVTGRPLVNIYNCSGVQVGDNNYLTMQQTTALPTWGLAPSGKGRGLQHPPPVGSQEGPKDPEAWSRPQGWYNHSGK
Protocol: To understand the interaction modes of these inhibitors within RIP3, the mechanisms of action studies including ATP competition were further performed with HS-1371. A 20 min pre-incubation of the compound and RIP3 enzyme was performed to ensure HS-1371 binding to the enzyme and equilibration. The reactions were monitored every 5–15 min to obtain progress curves with a time course. At each time point, radioisotope signal (^33P) was converted into M phosphate transferred to substrate and was plotted against time. The slopes (or velocity; M/min) were then plotted against ATP concentrations to generate a Michaelis–Menten plot and a subsequent Lineweaver–Burk plot (double-reciprocal plot) using GraphPad Prism software (GraphPad Software Inc., San Diego, CA). The results were further analyzed with global fit using GraFit software.

HT-29 cells [1] = experiment: TNF-induced apoptosis in HT-29 cells (TC or TS); type: cell-based, human; conditions: HT-29, 5 μM pretreated 2 h
Protocol: HT-29 cells expressing RIP3 shRNA, MLKL shRNA, or non-silencing control were analyzed by western blotting (upper panel), and these cells were treated with TSZ (6 h for immunoblotting, 24 h for cell death assay). Cell lysates were analyzed by immunoblotting (middle panel), and cell viability was analyzed by MTT assay (bottom panel). The results are presented as means ± SEM. *P < 0.05, **P < 0.01, ***P < 0.001. b HS-1371 protected cells not only from TNF-induced necroptosis but also from TRAIL-induced necroptosis. HT-29 cells were pretreated with indicated concentrations of HS-1371 and then treated with TRAIL + Smac + zVAD (6 h for immunoblotting, 24 h for cell death assay). Cell lysates were analyzed by immunoblotting, and cell viability was analyzed by MTT assay or phase-contrast microscopy. The results are presented as means ± SEM. *P < 0.05, **P < 0.01, ***P < 0.001. c, d HS-1371 had no effect on TNF-induced apoptosis. HT-29 cells were pretreated with HS-1371 (5 μM) for 2 h and then treated with TC or TS (TNF + either cycloheximide or SMAC mimetic, hereafter referred to as TC or TS, 6 h for immunoblotting, 24 h (TC) or 36 h (TS) for cell death assay). Cell lysates were analyzed by immunoblotting, and cell viability was analyzed by MTT assay (TC) or CellTiter-Glo Luminescent Cell Viability Assay Kit (TS). The results are presented as means ± SEM. *P < 0.05, **P < 0.01, ***P < 0.001

HT-29 cells [2] = experiment: TSZ-induced necroptotic cell death in HT-29 cells (MTT assay); type: cell-based
Protocol: Cell viability was determined using tetrazolium dye colorimetric tests (the MTT assay) read at 570 nm. PI staining was quantified using propidium iodide (Cat. No. 51-66211E, BD Biosciences). Lactate dehydrogenase (LDH) leakage was quantified using the […] according to the manufacturer’s instructions. The LDH absorbance was read at 490 nm, and the mean ± STDEV of duplicates is presented.
as §1

Cc1ccc(Oc2ccnc3cc(-c4cnn(C5CCNCC5)c4)ccc23)cc1 [HS-1371, 7-(1-(Piperidin-4-yl)-1H-pyrazol-4-yl)-4-(p-tolyloxy)quinoline]
p-MLKL detection / translocation after TSZ (p-MLKL): no detection of p-MLKL
TSZ-induced necroptosis (H2009 cells): prevented
mechanism of action upon binding to RIP3 (RIP3): time-independent and ATP-competitive
apoptosis induced by TNF plus CHX (HT-29 cells [1]; TC 24 h, MTT): did not inhibit
apoptosis induced by TNF plus Smac mimetic (HT-29 cells [1]; TS 36 h, CellTiter-Glo): did not inhibit
TNF-induced cell death, pre-treatment and post-treatment (HT-29 cells [2]; HT-29, 5 μM, pretreated 1 h or applied 1 or 2 h after induction): completely inhibited
viability in response to TSZ-mediated necroptosis, dose-dependent (HT-29 cells [2]; HT-29, indicated concentrations, TSZ 24 h): effectively restored
cellular cytotoxicity, post-treatment after TSZ (HT-29 cells [2]; HT-29, post-treatment until approximately 5 h after TSZ): significantly reduced
rescue from TSZ-induced cell death (HT-29 cells [2]; HT-29, pretreated 2 h, TSZ 24 h): rescued
